The values below come from patent publication US6525021B1 (priority 1998, dated 2003).

The structures appear in SMILES notation. Non-standard residues stand in square brackets, D forms with d. Residues, ends and D or L forms follow the SMILES beside them. *: point of attachment. X1 = CC(=O)N[C@@H]1[C@@H](O[C@@H]2O[C@H](CO)[C@H](O)[C@H](O)[C@H]2O)[C@@H](O)[C@@H](CO)O[C@@H]1*; pGlu = O=C1CC[C@@H](C(=O)O)N1

For data set [1] the following is noted: mouse, in vivo.
For data set [2] the following is noted: mouse, in vivo. The source holds these as a separate data set.

`CC[C@H](C)[C@H](NC(=O)[C@H](Cc1ccc(O)cc1)NC(=O)[C@@H]1CCCN1C(=O)[C@H](CCCCN)NC(=O)[C@H](CCCCN)NC(=O)[C@@H](NC(=O)[C@H](C)NC(=O)[C@H](CC(N)=O)NC(=O)[C@H](CO)NC(=O)CNC(=O)CNC(=O)[C@H](CCC(=O)O)NC(=O)[C@H](CCC(=O)O)NC(=O)[C@H](CO)NC(=O)[C@@H]1CCC(=O)N1)[C@@H](C)O[C@H]1O[C@H](CO)[C@H](O)[C@H](O[C@@H]2O[C@H](CO)[C@H](O)[C@H](O)[C@H]2O)[C@H]1NC(C)=O)C(=O)N[C@@H](CC(C)C)C(=O)O` [contulakin-G] ([pGlu]SEEGGSNAT(X1)KKPYIL-OH): in data set [1], the “TD50, rotorod test of minimal motor impairment” value was in the range of 10 to 20 pmol; the “antinociceptive doses relative to doses for locomotor impairment or hypothermia” value was 10-100 fold; the “doses causing long-lasting motor impairment, as multiple of ED50” value is at least 100 fold; the “time after which motor impairment resolved” value amounted to 5 h. The “time of maximal locomotor impairment post i.t. injection” value in data set [1] stood at 15 min.

For the molecule `CC[C@H](C)[C@H](NC(=O)[C@H](Cc1ccc(O)cc1)NC(=O)[C@@H]1CCCN1C(=O)[C@H](CCCCN)NC(=O)[C@H](CCCCN)NC(=O)[C@@H](NC(=O)[C@H](C)NC(=O)[C@H](CC(N)=O)NC(=O)[C@H](CO)NC(=O)CNC(=O)CNC(=O)[C@H](CCC(=O)O)NC(=O)[C@H](CCC(=O)O)NC(=O)[C@H](CO)NC(=O)[C@@H]1CCC(=O)N1)[C@@H](C)O)C(=O)N[C@@H](CC(C)C)C(=O)O` [Thr10-contulakin-G] (HELM PEPTIDE1{[Glp].S.E.E.G.G.S.N.A.T.K.K.P.Y.I.L}$$$$V2.0), the “motor impairment on rotorod compared to vehicle” value in data set [2] is given as “no motor impairment”. Moreover, in data set [1], the “antinociceptive doses relative to doses for locomotor impairment or hypothermia” value is given as “approximately equal doses”; the “doses causing long-lasting motor impairment, as multiple of ED50” value is recorded as at least 10 fold; the “duration of motor impairment” value fell in the range of 2 to 3 h; the “time of maximal locomotor impairment post i.t. injection” value was 15 min.
